Experimental data from patent publication US6838453B2, “Antagonist derivatives of the vitronectin receptor” (Aventis Pharma S.A., priority 2000, dated 2005).
Where a name gives a salt, the structure may show the parent alone.

Molecular target: human αvβ3 receptor (Homo sapiens, UniProt P05106+P06756)
Assay: Kistrin/Vitronectin Receptor (αvβ3) ELISA test
Assay type: binding
Details: Kistrin-coated plates, co-incubated 3 hours at ambient temperature, 4B12-HRP antibody, OD 450 nm, read-out: K/VnR IC50
Method: Kistrin/Vitronectin Receptor (αvβ3) ELISA Test
96-well MaxiSorp planes are coated overnight at […] with 100 μl of Kistrin at 1 μg/ml (dilution in a coating buffer: carbonate 0.05 M/NaOH pH 9.6). The next day, the wells are emptied and the ligands (kistrin) are then fixed (fixing buffers: PBS containing 0.5% BSA (pH=7.4)) for 1 hour at ambient temperature with gentle agitation at 125 rpm. The wells are washed six times (washing buffer: PBS containing 0.05% of Tween 20 (pH 7.7) then the following are added per well and in this order: • 40 μl of incubation buffer • 10 μl of the dilution of the product to be tested (the products are diluted in a 50:50 mixture DMSO/Water) • 50 μl of human αvβ3 receptor (cf Pytella et al. Methods Enzymol. (1987) 144 (Dilution in incubation buffer, to be adapted according to the receptor batch and according to the ligand). The ligand, the αvβ3 receptor and the products to be studied are co-incubated for 3 hours at ambient temperature with gentle agitation at 125 rpm.
The wells are again washed six times, then incubated for 2 hours at ambient temperature with gentle agitation at 125 rpm, in the presence of 100 μl of anti-receptor antibody conjugated to a peroxidase (The 4B12-HRP antibody is diluted in an incubation buffer (50 mM TRIS pH 7.4; 0.5% BSA; 0.05% Tween 20; 1 mM MnCl2; 50 μM CaCl2; 50 μM MgCl2; 100 mM NaCl) The dilution is adapted according to the receptor batch.
The wells are then washed six times before measuring the ligand-receptor bond carried out using a peroxidase developer kit (TBM Microwell Peroxidase Substrate System Kirkegaard; Cat. Ref. 50-76-00).
This kit contains a bottle A of substrate (3,3′,5,5′-tetramethylebenzidine at 0.4 g/l) and a bottle B (H2O2 at 0.02% in a Citrate/Citric acid buffer). Extemporaneously, a volume of A is mixed with a volume of B, then the reaction mixture is distributed at a rate of 100 μl/well.
The enzymatic reaction develops between 6 and 10 minutes for Kistrin/αvβ3 then its evolution is stopped by the addition of 100 μl of 1M phosphoric acid. The optical density is determined at 450 nm.
Expression of the Results
The following curve is plotted: the bond percentage as a function of the logarithm of each concentration of the tested product.
For each product, the IC50 is determined according to the following formula: IC50=(B0+Bmin)/2 • B0=Maximum bond in the absence of any product • Bmin =Minimum bond in the presence of the highest concentration of the product.

human αvβ3 receptor, sequence (P06756 31-889 limits assumed): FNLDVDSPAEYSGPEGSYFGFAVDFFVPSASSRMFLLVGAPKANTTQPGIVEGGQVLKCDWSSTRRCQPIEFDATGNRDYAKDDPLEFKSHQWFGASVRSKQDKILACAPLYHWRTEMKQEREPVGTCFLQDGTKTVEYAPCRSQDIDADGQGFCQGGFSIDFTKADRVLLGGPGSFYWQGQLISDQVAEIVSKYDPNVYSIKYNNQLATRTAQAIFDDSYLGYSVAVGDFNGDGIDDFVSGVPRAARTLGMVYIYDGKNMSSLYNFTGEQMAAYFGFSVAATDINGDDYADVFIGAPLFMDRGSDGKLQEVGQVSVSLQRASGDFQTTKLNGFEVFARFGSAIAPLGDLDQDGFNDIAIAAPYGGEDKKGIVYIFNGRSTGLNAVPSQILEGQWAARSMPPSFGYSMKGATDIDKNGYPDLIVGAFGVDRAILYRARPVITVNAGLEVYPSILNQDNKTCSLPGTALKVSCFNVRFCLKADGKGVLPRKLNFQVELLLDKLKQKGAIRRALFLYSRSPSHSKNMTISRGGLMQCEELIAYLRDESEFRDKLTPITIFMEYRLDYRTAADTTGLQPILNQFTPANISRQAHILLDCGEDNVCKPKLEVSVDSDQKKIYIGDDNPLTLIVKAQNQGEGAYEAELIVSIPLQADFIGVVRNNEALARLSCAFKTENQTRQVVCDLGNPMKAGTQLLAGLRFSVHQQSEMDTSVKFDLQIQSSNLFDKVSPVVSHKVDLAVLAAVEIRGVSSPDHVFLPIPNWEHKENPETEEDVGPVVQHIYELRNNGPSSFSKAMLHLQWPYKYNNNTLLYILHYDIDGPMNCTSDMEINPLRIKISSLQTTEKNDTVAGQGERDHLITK
human αvβ3 receptor, sequence (P06756 891-1048 limits assumed): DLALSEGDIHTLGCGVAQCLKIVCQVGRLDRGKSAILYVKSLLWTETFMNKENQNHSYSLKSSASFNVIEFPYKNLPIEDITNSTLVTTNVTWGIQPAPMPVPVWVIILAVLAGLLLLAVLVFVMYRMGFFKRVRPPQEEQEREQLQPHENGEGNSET
human αvβ3 receptor, sequence (P05106 27-788): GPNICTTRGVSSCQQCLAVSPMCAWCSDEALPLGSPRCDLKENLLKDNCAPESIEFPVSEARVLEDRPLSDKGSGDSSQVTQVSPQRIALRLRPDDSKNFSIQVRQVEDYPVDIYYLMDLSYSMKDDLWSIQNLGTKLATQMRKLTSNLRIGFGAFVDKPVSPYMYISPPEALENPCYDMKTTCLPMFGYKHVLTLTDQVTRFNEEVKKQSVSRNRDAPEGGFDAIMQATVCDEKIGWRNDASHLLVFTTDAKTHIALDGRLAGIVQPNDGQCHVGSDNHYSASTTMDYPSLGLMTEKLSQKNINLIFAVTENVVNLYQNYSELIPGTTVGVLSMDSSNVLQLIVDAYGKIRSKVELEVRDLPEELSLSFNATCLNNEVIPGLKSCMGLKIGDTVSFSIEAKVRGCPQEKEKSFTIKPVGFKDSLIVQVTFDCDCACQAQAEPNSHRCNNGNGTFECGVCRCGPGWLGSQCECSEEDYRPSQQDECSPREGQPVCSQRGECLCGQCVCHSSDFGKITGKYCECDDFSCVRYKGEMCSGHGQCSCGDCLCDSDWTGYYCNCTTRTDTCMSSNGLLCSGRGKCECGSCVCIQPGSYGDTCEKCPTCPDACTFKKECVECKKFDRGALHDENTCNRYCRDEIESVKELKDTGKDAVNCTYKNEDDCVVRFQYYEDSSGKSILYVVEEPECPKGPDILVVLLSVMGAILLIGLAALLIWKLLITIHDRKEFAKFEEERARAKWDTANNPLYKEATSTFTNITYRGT

Row | SMILES | IC50
1 | O=C(CCCOc1ccc(C[C@H](Nc2nc3cccc(Cl)c3o2)C(=O)O)cc1)NC1=NCCCN1 [Example 15, N-(7-chloro-2-benzoxazolyl)-O-[4-oxo-4-[(1,4,5,6-tetrahydro-2-pyrimidinyl)amino]butyl]-L-tyrosine trifluoroacetate] | 5 nM
2 | Cc1ccc2[nH]c(N[C@@H](Cc3ccc(OCCCC(=O)NC4=NCCCN4)cc3)C(=O)O)nc2c1 [Example 4b, N-[5-methyl-1H-benzimidazol-2-yl]-O-[4-oxo-4-[(1,4,5,6-tetrahydro-2-pyrimidinyl)amino]butyl]-L-tyrosine] | 14 nM
3 | O=C(CCc1ccc(C(=O)NC[C@H](Nc2nc3ccc(Br)cc3s2)C(=O)O)cc1)NC1=NCCCN1 [Example 11, N-(6-bromo-2-benzothiazolyl)-3-[[4-[3-oxo-3-[(1,4,5,6-tetrahydro-2-pyrimidinyl)amino]propyl]benzoyl]amino]-L-alanine] | 7 nM
4 | O=C(CCCOc1ccc(C[C@H](Nc2nc3ccccc3o2)C(=O)O)cc1)NC1=NCCCN1 [Example 6, N-(2-benzoxazolyl)-O-[4-oxo-4-[(1,4,5,6-tetrahydro-2-pyrimidinyl)amino]butyl]-L-tyrosine] | 5 nM
5 | O=C(CCCOc1ccc(C[C@H](Nc2nc3cc(F)ccc3o2)C(=O)O)cc1)NC1=NCCCN1 [Example 14, N-(5-fluoro-2-benzoxazolyl)-O-[4-oxo-4-[(1,4,5,6-tetrahydro-2-pyrimidinyl)amino]butyl]-L-tyrosine trifluoroacetate] | 7 nM
6 | O=C(CCCOc1ccc(C[C@H](Nc2nc3cc(Cl)cc(Cl)c3o2)C(=O)O)cc1)NC1=NCCCN1 [Example 28, N-(5,7-dichloro-2-benzoxazolyl)-O-[4-oxo-4-[(1,4,5,6-tetrahydro-2-pyrimidinyl)amino]butyl]-L-tyrosine] | 7 nM
7 | O=C(O)[C@H](Cc1ccc(OCCCc2ccc3c(n2)NCCC3)cc1)Nc1nnnn1Cc1ccccc1 [Example 1, N-[1-(phenylmethyl)-1H-tetrazol-5-yl]-O-[3-(5,6,7,8-tetrahydro-1,8-naphthyridin-2-yl)propyl]-L-tyrosine] | 9 nM
8 | O=C(O)[C@H](Cc1ccc(OCCCc2ccc3c(n2)NCCC3)cc1)Nc1nc2ccccc2o1 [Example 3, N-(2-benzoxazolyl)-O-[3-(5,6,7,8-tetrahydro-1,8-naphthyridin-2-yl)propyl]-L-tyrosine] | 50 nM
9 | O=C(CCCOc1ccc(C[C@H](Nc2nc3ccc(Cl)cc3o2)C(=O)O)cc1)NC1=NCCCN1 [Example 16, N-(6-chloro-2-benzoxazolyl)-O-[4-oxo-4-[(1,4,5,6-tetrahydro-2-pyrimidinyl)amino]butyl]-L-tyrosine] | 9 nM
10 | O=C(CCCOc1ccc(C[C@H](Nc2nc3ccc(F)cc3o2)C(=O)O)cc1)NC1=NCCCN1 [Example 13, N-(6-fluoro-2-benzoxazolyl)-O-[4-oxo-4-[(1,4,5,6-tetrahydro-2-pyrimidinyl)amino]butyl]-L-tyrosine] | 7 nM
11 | O=C(CCCOc1ccc(C[C@H](Nc2nc3cc(Cl)ccc3o2)C(=O)O)cc1)NC1=NCCCN1 [Example 17, N-(5-chloro-2-benzoxazolyl)-O-[4-oxo-4-[(1,4,5,6-tetrahydro-2-pyrimidinyl)amino]butyl]-L-tyrosine] | 9 nM
12 | O=C(CCCOc1ccc(C[C@H](Nc2nc3cc(Br)ccc3s2)C(=O)O)cc1)NC1=NCCCN1 [Example 34, N-(5-bromo-2-benzothiazolyl)-O-[4-oxo-4-[(1,4,5,6-tetrahydro-2-pyrimidinyl)amino]butyl]-L-tyrosine] | 18 nM
13 | O=C(CCCOc1ccc(C[C@H](Nc2nc3cc4ccccc4cc3o2)C(=O)O)cc1)NC1=NCCCN1 [Example 19, N-(naphth[2,3-d]oxazol-2-yl)-O-[4-oxo-4-[(1,4,5,6-tetrahydro-2-pyrimidinyl)amino]butyl]-L-tyrosine] | 6 nM
14 | O=C(CCCOc1ccc(C[C@H](Nc2nc3ccc(Br)cc3s2)C(=O)O)cc1)NC1=NCCCN1 [Example 8, N-(6-bromo-2-benzothiazolyl)-O-[4-oxo-4-[(1,4,5,6-tetrahydro-2-pyrimidinyl)amino]butyl]-L-tyrosine] | 8 nM
15 | O=C(CCCOc1ccc(C[C@H](Nc2nnnn2Cc2ccccc2)C(=O)O)cc1)NC1=NCCCN1 [Example 5, O-[4-oxo-4-[(1,4,5,6-tetrahydro-2-pyrimidinyl)amino]butyl]-N-[1-(phenylmethyl)-1H-tetrazol-5-yl]-L-tyrosine] | 15 nM
16 | O=C(CCCOc1ccc(C[C@H](Nc2nc3cc(-c4ccccc4)ccc3o2)C(=O)O)cc1)NC1=NCCCN1 [Example 21, O-[4-oxo-4-[(1,4,5,6-tetrahydro-2-pyrimidinyl)amino]butyl]-N-(5-phenyl-2-benzoxazolyl)-L-tyrosine] | 6 nM
17 | COc1ccc2[nH]c(N[C@@H](Cc3ccc(OCCCC(=O)NC4=NCCCN4)cc3)C(=O)O)nc2c1 [Example 4a] | 19 nM
18 | Cc1c(Cl)cc2nc(N[C@@H](Cc3ccc(OCCCC(=O)NC4=NCCCN4)cc3)C(=O)O)oc2c1Cl [Example 29, N-(5,7-dichloro-6-methyl-2-benzoxazolyl)-O-[4-oxo-4-[(1,4,5,6-tetrahydro-2-pyrimidinyl)amino]butyl]-L-tyrosine] | 10 nM
19 | O=C(CCCOc1ccc(C[C@H](Nc2nc3cccc(F)c3o2)C(=O)O)cc1)NC1=NCCCN1 [Example 12, N-(7-fluoro-2-benzoxazolyl)-O-[4-oxo-4-[(1,4,5,6-tetrahydro-2-pyrimidinyl)amino]butyl]-L-tyrosine] | 9 nM
20 | O=C(CCCOc1ccc(C[C@H](Nc2nc3ccccc3s2)C(=O)O)cc1)NC1=NCCCN1 [Example 7, N-(2-benzothiazolyl)-O-[4-oxo-4-[(1,4,5,6-tetrahydro-2-pyrimidinyl)amino]butyl]-L-tyrosine] | 6 nM
21 | O=C(O)[C@H](Cc1ccc(OCCCc2ccc3c(n2)NCCC3)cc1)Nc1nc2ccccc2s1 [Example 2, N-(2-benzothiazolyl)-O-[3-(5,6,7,8-tetrahydro-1,8-naphthyridin-2-yl)propyl]-L-tyrosine] | 70 nM
22 | O=C(CCCOc1ccc(C[C@H](Nc2nc3cc(Br)cc(F)c3o2)C(=O)O)cc1)NC1=NCCCN1 [Example 9, N-[5-bromo-7-fluoro-2-benzoxazolyl)-O-[4-oxo-4-[(1,4,5,6-tetrahydro-2-pyrimidinyl)amino]butyl]-L-tyrosine] | 9 nM
23 | O=C(CCCOc1ccc(C[C@H](Nc2nc3c(ccc4ccccc43)o2)C(=O)O)cc1)NC1=NCCCN1 [Example 20, N-(naphth[1,2-d]oxazol-2-yl)-O-[4-oxo-4-[(1,4,5,6-tetrahydro-2-pyrimidinyl)amino]butyl]-L-tyrosine] | 35 nM
24 | CN(c1ccccc1)S(=O)(=O)c1ccc2oc(N[C@@H](Cc3ccc(OCCCC(=O)NC4=NCCCN4)cc3)C(=O)O)nc2c1 [Example 31, N-[5-[(N-methylphenylamino)sulphonyl]-2-benzoxazolyl]-O-[4-oxo-4-[(1,4,5,6-tetrahydro-2-pyrimidinyl)amino]butyl]-L-tyrosine] | 5 nM
25 | O=C(CCCOc1ccc(C[C@H](Nc2nc3ccc(F)c(F)c3o2)C(=O)O)cc1)NC1=NCCCN1 [Example 27, N-(6,7-difluoro-2-benzoxazolyl)-O-[4-oxo-4-[(1,4,5,6-tetrahydro-2-pyrimidinyl)amino]butyl]-L-tyrosine] | 12 nM
26 | O=C(CCCOc1ccc(C[C@H](Nc2nc3cc(C(F)(F)F)ccc3o2)C(=O)O)cc1)NC1=NCCCN1 [Example 23, O-[4-oxo-4-[(1,4,5,6-tetrahydro-2-pyrimidinyl)amino]butyl]-N-[5-(trifluoromethyl)-2-benzoxazolyl)-L-tyrosine] | 10 nM
27 | O=C(CCCOc1ccc(C[C@H](Nc2nc3ccc(Cl)cc3s2)C(=O)O)cc1)NC1=NCCCN1 [Example 32, N-(6-chloro-2-benzothiazolyl)-O-[4-oxo-4-[(1,4,5,6-tetrahydro-2-pyrimidinyl)amino]butyl]-L-tyrosine] | 10 nM
28 | O=C(CCc1ccc(C(=O)NC[C@H](Nc2nc3cc(Br)ccc3o2)C(=O)O)cc1)NC1=NCCCN1 [Example 10, N-(5-bromo-2-benzoxazolyl)-3-[[4-[3-oxo-3-[(1,4,5,6-tetrahydro-2-pyrimidinyl)amino]propyl]benzoyl]amino]-L-alanine] | 6 nM
29 | O=C(CCCOc1ccc(C[C@H](Nc2nc3cc(S(=O)(=O)Nc4ccccc4)ccc3o2)C(=O)O)cc1)NC1=NCCCN1 [Example 30, N-[5-[(phenylamino)sulphonyl]-2-benzoxazolyl]-O-[4-oxo-4-[(1,4,5,6-tetrahydro-2-pyrimidinyl)amino]butyl]-L-tyrosine] | 7 nM
